Laboratory results reported in the supplement of paper PMC10307832.

Legend:
Assay in all cases: relative viability (nuclei count vs DMSO), 5 days (fraction); higher = more cells survive
XMD8-85 + Luminespib = compound: CN1CCN(CC1)C2=CC(=C(C=C2)NC3=NC=C4C(=N3)N(C5=CC=CC=C5C(=O)N4C)C)OC [XMD8-85] + CCNC(=O)c1noc(-c2cc(C(C)C)c(O)cc2O)c1-c1ccc(CN2CCOCC2)cc1 [Luminespib] (partner 0.01 µM)
Summary of the method: (§1)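 A single step with final 0.05% Triton X-100, 1% formaldehyde and 1 ug/ml Hoechst fixed the cells and stained nuclei 5 days after treatment. Lung cancer cell lines in 1536-well plates had been treated by pin tool the day after seeding with one drug alone or a fixed anchor-drug dose plus five library-drug doses (not always all listed) in √10 steps, and nuclei were counted on 4× images. Relative viability is the ratio of nuclei in treated wells to nuclei in vehicle wells, taken as the median of duplicate plates.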

XMD8-85 + Trametinib = compound: CN1CCN(CC1)C2=CC(=C(C=C2)NC3=NC=C4C(=N3)N(C5=CC=CC=C5C(=O)N4C)C)OC [XMD8-85] + CC(=O)Nc1cccc(-n2c(=O)n(C3CC3)c(=O)c3c(Nc4ccc(I)cc4F)n(C)c(=O)c(C)c32)c1 [Trametinib] (partner 0.02 µM)
Summary of the method: as §1

4EGI-1 + Olaparib = compound: O=C(O)C(Cc1ccccc1[N+](=O)[O-])=NNc1nc(-c2ccc(Cl)c(Cl)c2)cs1 (mixture of isomers) [4EGI-1] + O=C(c1cc(Cc2n[nH]c(=O)c3ccccc23)ccc1F)N1CCN(C(=O)C2CC2)CC1 [Olaparib] (partner 8 µM)
Summary of the method: as §1

4EGI-1 + Pictilisib = compound: O=C(O)C(Cc1ccccc1[N+](=O)[O-])=NNc1nc(-c2ccc(Cl)c(Cl)c2)cs1 (mixture of isomers) [4EGI-1] + CS(=O)(=O)N1CCN(Cc2cc3nc(-c4cccc5[nH]ncc45)nc(N4CCOCC4)c3s2)CC1 [Pictilisib] (partner 1 µM)
Summary of the method: as §1

Cell Line | relative viability (XMD8-85 + Luminespib; first compound 0.08 µM) | relative viability (XMD8-85 + Luminespib; first compound 0.253 µM) | relative viability (XMD8-85 + Luminespib; first compound 0.8 µM) | relative viability (XMD8-85 + Luminespib; first compound 2.53 µM) | relative viability (XMD8-85 + Luminespib; first compound 8 µM) | relative viability (XMD8-85 + Trametinib; first compound 0.08 µM) | relative viability (XMD8-85 + Trametinib; first compound 0.253 µM) | relative viability (XMD8-85 + Trametinib; first compound 0.8 µM) | relative viability (XMD8-85 + Trametinib; first compound 2.53 µM) | relative viability (XMD8-85 + Trametinib; first compound 8 µM) | relative viability (4EGI-1 + Olaparib; first compound 0.5 µM) | relative viability (4EGI-1 + Olaparib; first compound 5 µM) | relative viability (4EGI-1 + Olaparib; first compound 15.81 µM) | relative viability (4EGI-1 + Olaparib; first compound 50 µM) | relative viability (4EGI-1 + Pictilisib; first compound 0.5 µM) | relative viability (4EGI-1 + Pictilisib; first compound 1.581 µM) | relative viability (4EGI-1 + Pictilisib; first compound 5 µM) | relative viability (4EGI-1 + Pictilisib; first compound 50 µM) | relative viability (4EGI-1 + Olaparib; first compound 1.581 µM) | relative viability (4EGI-1 + Pictilisib; first compound 15.81 µM)
PC-14 | 0.14 | 0.167 | 0.179 | 0.154 | 0.134 | 0.733 | 0.703 | 0.756 | 0.6 | 0.306 | 0.295 | 0.239 | 0.1 | 0.0599 | 0.879 | 0.464 | 0.602 | 0.704 | – | –
NCI-H520 | 0.235 | 0.257 | 0.192 | 0.202 | 0.201 | – | 0.728 | 0.689 | 0.604 | 0.496 | 0.375 | 0.458 | 0.265 | 0.13 | 0.332 | 0.315 | 0.378 | 0.162 | 0.329 | 0.367
NCI-H2342 | 0.649 | 0.719 | 0.74 | 0.809 | 0.887 | 0.747 | 0.807 | 0.859 | 0.922 | 0.991 | 0.472 | 0.43 | 0.569 | 0.51 | – | – | – | – | 0.429 | –
NCI-H3122 | 0.117 | – | 0.115 | 0.106 | 0.102 | 0.251 | 0.223 | 0.271 | 0.303 | 0.283 | 0.578 | 0.667 | 0.448 | 0.301 | 0.599 | 0.531 | 0.632 | 0.412 | 0.554 | 0.635
HCC-78 | – | – | – | – | – | 1.14 | 1.02 | 0.735 | 0.536 | 0.402 | 1.05 | 0.881 | 0.816 | 1.13 | 0.206 | 0.257 | 0.153 | 0.234 | – | 0.191
SW 1573 | 0.276 | 0.189 | 0.183 | 0.172 | 0.175 | 0.542 | 0.522 | 0.594 | 0.427 | 0.262 | 0.529 | 0.672 | 0.213 | 0.113 | 0.549 | 0.562 | 0.461 | 0.47 | 0.317 | 0.445
RERF-LC-KJ | 1.32 | 1.14 | 1.3 | 1.1 | 0.779 | 0.887 | 0.853 | 0.873 | 0.904 | 0.727 | 0.97 | 0.902 | 0.489 | 0.254 | 0.636 | 0.42 | 0.468 | 0.581 | – | 0.357
SK-MES-1 | 0.823 | 0.768 | 0.779 | 0.655 | 0.409 | 0.57 | 0.616 | 0.49 | 0.428 | 0.304 | 0.767 | 0.639 | 0.229 | 0.148 | 0.458 | 0.349 | 0.338 | 0.347 | 0.508 | 0.303
NCI-H1993 | 0.79 | 0.837 | 0.929 | 0.928 | 0.746 | 0.484 | 0.436 | 0.537 | 0.494 | 0.381 | 1.11 | 1.21 | 0.967 | 0.522 | 0.919 | 0.761 | 0.781 | 0.862 | 0.965 | 0.736
NCI-H1915 | 0.807 | 0.764 | 0.49 | 0.47 | 0.448 | 0.328 | 0.309 | 0.251 | 0.478 | 0.282 | 0.261 | 0.275 | 0.207 | 0.152 | 0.943 | 0.558 | 1.03 | 0.66 | 0.207 | 0.933
NCI-H1650 | 0.203 | 0.216 | 0.199 | 0.173 | 0.173 | 0.629 | 0.539 | 0.784 | 0.426 | 0.36 | 0.757 | 0.803 | 0.537 | 0.214 | 0.671 | – | 0.659 | 0.235 | – | 0.351
HCC-44 | 1.32 | 1.21 | 1.36 | 0.588 | 0.75 | 1.11 | 1.12 | 1.12 | 1.04 | 1.01 | 0.959 | 0.953 | 0.934 | 0.752 | 0.75 | 0.515 | 0.653 | 0.299 | 0.829 | 0.527
NCI-H2170 | 0.887 | 0.609 | 0.931 | 0.894 | 0.474 | 0.848 | 0.845 | 1.03 | 1 | 0.702 | 0.625 | 0.567 | 0.36 | 0.189 | 0.316 | 0.306 | 0.319 | 0.22 | 0.541 | 0.253
NCI-H1975 | 0.398 | 0.188 | 0.207 | 0.236 | 0.152 | 0.37 | 0.376 | 0.334 | 0.361 | 0.268 | 0.893 | 0.805 | 0.812 | 0.292 | 0.309 | 0.324 | 0.316 | 0.294 | 0.682 | 0.322
HCC-827 | 0.834 | 0.486 | 0.756 | 0.797 | 0.614 | 0.55 | 0.461 | 0.528 | 0.512 | 0.496 | 0.572 | 0.703 | – | 0.406 | 1.03 | 0.993 | 0.958 | 0.66 | 0.457 | 0.298
NCI-H2347 | 0.545 | 0.405 | 0.243 | 0.208 | 0.306 | 0.275 | 0.312 | 0.283 | 0.298 | 0.286 | 0.555 | 0.567 | 0.607 | 0.533 | 0.469 | 0.488 | 0.579 | 0.361 | 0.487 | 0.738
